# Read-outs that look alike come from different tables or passages of the source.
# Assays:
# lac promoter/operator = assay: Control lac P/O construct, GFP expression; type: cell-based, E. coli
# Description: FIGS. 52 and 53 illustrate the increased dynamic regulation of expression of a gene of interest (here exemplified by green fluorescent protein) that can be achieved using gene constructs in accordance with the present invention, as compared to comparator (control) constructs. In the control constructs GFP expression is controlled directly by a lac promoter/operator alone. In contrast, in the gene constructs of the invention GFP expression is controlled by both a lac promoter/operator, and a riboswitch. In this arrangement the lac promoter provides transcriptional control of expression, and the riboswitch provides translational control. FIGS. 52 and 53 respectively show data generated by gene constructs of the invention comprising first and second generation riboswitches (referred to respectively as “1st Generation” and “2nd Generation” constructs) when present on high copy plasmids in E. coli Top10F′. In this example, the first generation riboswitch comprises AddA (the ligand for which is adenine), and the second generation riboswitch comprises M6″ (the ligand for which is A43). […]
# The induction factor represents the degree to which gene expression is controlled, and is determined from the ratio of the maximum induced protein expression over the basal protein expression level. […]
# M6″ riboswitch [1] = assay: M6″-eGFP construct, GFP expression; type: cell-based, E. coli
# Description: (§1) Re-engineering the adenine responsive add A-riboswitch (addA) from Vibrio vulnificus (FIGS. 27A & B) [Dixon et al Proc Natl Acad Sci USA 2010, 107, 2830].
# In contrast, the genetic construct of the invention comprises a lac promoter/operator upstream of a 2nd generation riboswitch M6″-eGFP the lac promoter/operator and riboswitch respectively providing direct control of the expression of GFP via transcriptional and translational control.
# Both the comparator construct and the genetic construct of the invention were provided on high copy plasmids in Top 10F′.
# M6″ riboswitch [2] = assay: T7 RNA polymerase expression under M6″ riboswitch control (spacer constructs); conditions: for regulation upon addition of IPTG: IPTG 0.5 mM
# Description: (§6) Expression is induced using IPTG (0.5 mM) and increasing concentrations of A43 (respectively 0, 5, 10, 25, 50, 100, 250 uM) shown in the third to eighth columns.
# M6 riboswitch [3] = assay: Dual promoter construct, DsRed expression by fluorescence; type: cell-based, Escherichia coli; conditions: for maximum normalized red fluorescence: Am 0→250 μM
# Description: (§2) Here we show how two mutually orthogonal riboswitches can be independently controlled by varying concentrations of two distinct synthetic inducers, allowing dynamic expression landscapes to be accessed and optimal co-expression stoichiometries to be established. In the first instance a dual promoter system was constructed, in the pBKS vector with the orthogonal M6 riboswitch selected previously (Dixon et al Proc Natl Acad Sci USA 2010, 107, 2830] or Dixon et al Angew. Chem. 2012, 51, 3620-3624. controlling translation of the red fluorescent protein DsRed [Bevis, Nat. Biotech. 20:83 (2002)] in response to the ligand ammeline (Am). The bacteriophage lambda tR1 transcription terminator [Graham. NAR, Vol. 32:3093 (2004] was inserted downstream of DsRed gene, followed by a second lac promoter and the 2-aminopurine (2AP)-responsive parental add A-riboswitch [Dixon et al Proc Natl Acad Sci USA 2010, 107, 2830 & Mandal, Nat Struct Mol Biol 11: 29 (2004)] controlling translation of the green fluorescent protein eGFP (FIG. 34A). Escherichia coli was transformed with this dual promoter construct and expression of DsRed and eGFP genes, was then determined by fluorescence as function of inducer concentrations.
# (§3) To explore the capacity of the dual promoter system for controlling the differential expression of DsRed and eGFP, multi-dosage matrix expression analysis was performed where induction factors (IF), the ratio of the maximum ligand-induced protein expression over the basal protein expression level, are determined for a full range of inducer concentrations (FIGS. 34A & B).
# (§4) A number of reasons could possibly account for this. Firstly, ribosomal read-through could result in a more efficient initiation of translation at the eGFP RBS. Secondly, riboswitches that control gene expression through changing the accessibility of the RBS (like addA), may also rely on Rho-dependent termination of transcription [Roth, Annu. Rev. Biochem. 78:305 (2009) & Peters Proc. Natl. Acad. Sci. USA 106:15406 (2009)]. In the case of the operon, when both riboswitches are activated by Am and 2AP, ribosomes will be recruited at both RBSs and will occupy the full length of the transcript, blocking Rho binding [Epshtein, Nature 463:245 (2010)]. Consequently the levels of full-length mRNA transcripts in the cell will be higher, than if either or both ligands are absent. Finally protection of the full-length transcript from nuclease degradation by actively translating ribosomes [Deana, Genes Dev. […] Titration of the M6 selective inducer Am (0→250 μM) against the dual promoter in either the absence or presence 2AP (0 or 250 μM) gives dose-dependent protein expression curves for DsRed that are very similar, with maximum normalized red fluorescence (fu/OD620) of 1.1×10^5 and 1.0×10^5 respectively (FIG. 36A). […]
# add A = conditions: earlier in vitro studies; cited from earlier work
# M6″ riboswitch aptamer = assay: Isothermal titration calorimetry with M6″ aptamer; type: binding
# Description: as §1
# add A-riboswitch = assay: Dual promoter construct, eGFP expression by fluorescence; type: cell-based, Escherichia coli
# Description: as §2, §3
# (§5) A number of reasons could possibly account for this. Firstly, ribosomal read-through could result in a more efficient initiation of translation at the eGFP RBS. […] Titration of the M6 selective inducer Am (0→250 μM) against the dual promoter in either the absence or presence 2AP (0 or 250 μM) gives dose-dependent protein expression curves for DsRed that are very similar, with maximum normalized red fluorescence (fu/OD620) of 1.1×10^5 and 1.0×10^5 respectively (FIG. 36A). […]
# M6 riboswitch [4] = assay: Operon construct, DsRed expression by fluorescence; type: cell-based, Escherichia coli
# Description: In a second series of experiments, a synthetic operon was designed with one promoter driving transcription of a single bicistronic mRNA comprising the M6 riboswitch regulating DsRed, and an intergenic add-A riboswitch controlling a downstream eGFP gene (FIG. 35A). […] Moreover, the maximum DsRed induction factor was 21.2, which is also more than 2-fold higher than the dual promoter system (FIG. 35B). The organisation of M6-DsRed in an operon, permits differential control, but also gives rise to significant amplification of the dynamic range of gene expression (IF), compared with the dual promoter system. […] In this case, eGFP output was clearly dependent on both ligands. […]
# as §5
# AddA riboswitch = assay: addA-eGFP construct, GFP expression; type: cell-based, E. coli
# Description: In the control constructs GFP expression is controlled directly by a lac promoter/operator alone. In contrast, in the gene constructs of the invention GFP expression is controlled by both a lac promoter/operator, and a riboswitch. In this arrangement the lac promoter provides transcriptional control of expression, and the riboswitch provides translational control. […] In this example, the first generation riboswitch comprises AddA (the ligand for which is adenine), and the second generation riboswitch comprises M6″ (the ligand for which is A43).
# GFP induction factors (left axis indicated by the green bars) and absolute normalized GFP fluorescence signal (right axis) in the absence of inducer (open shape) and in the presence of inducer (closed shape).
# M6C″ riboswitch aptamer = assay: Isothermal titration calorimetry with M6C″ aptamer; type: binding; conditions: ITC, M6C″ aptamer domain
# Description: as §1
# M6″ riboswitch [5] = tested on: M6″ riboswitch
# Description: as §6
# [6] = tested on: addA(wt) riboswitch aptamer; assay: Isothermal titration calorimetry with AddA(wt) aptamer; type: binding, Vibrio vulnificus; conditions: ITC, FIG. 59
# Description: Improved 2nd generation ligands have been discovered both in terms of in vivo and in vitro binding affinity.
# M6C″ riboswitch = assay: M6C″-eGFP riboswitch-reporter construct, gene expression; type: cell-based, E. coli
# Description: as §1
# [7] = tested on: intergenic add-A riboswitch; assay: Operon construct, eGFP expression by fluorescence; type: cell-based, Escherichia coli
# Description: In a second series of experiments, a synthetic operon was designed with one promoter driving transcription of a single bicistronic mRNA comprising the M6 riboswitch regulating DsRed, and an intergenic add-A riboswitch controlling a downstream eGFP gene (FIG. 35A). […] Moreover, the maximum DsRed induction factor was 21.2, which is also more than 2-fold higher than the dual promoter system (FIG. 35B). The organisation of M6-DsRed in an operon, permits differential control, but also gives rise to significant amplification of the dynamic range of gene expression (IF), compared with the dual promoter system. […] In this case, eGFP output was clearly dependent on both ligands. A synergistic effect of the two ligands is observed in the induction factor matrix analysis, across a full range of Am and 2AP concentrations (FIG. 35C), with the expression landscape reaching a maximum induction factor of 24.1 in the presence of the highest concentrations of both inducers. […] Similarly no cross-talk is observed with the dual promoter system described above.
# as §4, with “(2010)].” for “(2010)]. Consequently the levels of full-length mRNA transcripts in the cell will be higher, than if either or both ligands are absent. Finally protection of the full-length transcript from nuclease degradation by actively translating ribosomes [Deana, Genes Dev.”
# M6 = conditions: earlier in vitro studies; cited from earlier work
smiles,measurement,setting,value
CC(C)S[C@@H]1O[C@H](CO)[C@H](O)[C@H](O)[C@H]1O [IPTG],induction factor (control +/−IPTG),lac promoter/operator,4
same,control +/−IPTG,"M6″ riboswitch [1]; riboswitch containing construct, column 2, no riboswitch inducer",40 fold
same,regulation upon addition of IPTG,M6″ riboswitch [2]; sp105,44 fold
same,regulation upon addition of IPTG,M6″ riboswitch [2]; sp120,~1 fold
"Nc1nc(N)[nH]c(=O)n1 [Am, ammeline]",maximum normalized red fluorescence,M6 riboswitch [3]; absence of 2AP,1.1×10^5 fu/OD620
same,maximum normalized red fluorescence,M6 riboswitch [3]; presence of 2AP 250 μM,1.0×10^5 fu/OD620
same,"maximum induction factor, DsRed","M6 riboswitch [3]; increasing Am, co-administration of 2-AP",9.3
same,binding interaction,add A,no binding interaction
same,Kd,"M6″ riboswitch aptamer; ITC, M6″ aptamer domain, read-out: Kd",1000 to 1200 nM
same,effect upon induction of eGFP expression,add A-riboswitch; changes in Am concentration,no effect
same,maximum DsRed induction factor,M6 riboswitch [4],21.2
same,"maximum output, DsRed expression","M6 riboswitch [4]; Am 0→250 μM, presence or absence of 2AP (0 or 250 μM)",2.9×10^6 fu/OD620
same,response of riboswitch to ligand,AddA riboswitch,does not respond
"Nc1ncnc(=O)[nH]1 [compound 3, azacytosine]",response of riboswitch to ligand,AddA riboswitch,does not respond
same,Kd,M6C″ riboswitch aptamer,1000 to 1200 nM
"Nc1nc(N)c2cncnc2n1 [A43, pyrimido[4,5-d]pyrimidine-2,4-diamine]",Kd,"M6″ riboswitch aptamer; isothermal titration calorimetry, FIG. 59, read-out: Kd",189 nM
same,maximum eGFP expression compared with WT,"M6″ riboswitch [1]; eGFP expression assay, FIG. 58",exceeds that of the WT (adddA) with adenine
same,induction of gene expression,M6″ riboswitch [1]; in E. coli,12 fold
same,induction of gene expression,"M6″ riboswitch [1]; in combination with lac promoter/operator, FIG. 53",> 400 fold
same,induction factor,"M6″ riboswitch [1]; maximum induced over basal, IPTG plus A43",~450
same,induction of T7 RNA polymerase (blot),"M6″ riboswitch [2]; A43 50, 100, 250, 1000 μM, lac I forward or reverse, FIG. 48",dose-dependent
same,regulation of T7RNAP (western blot),"M6″ riboswitch [2]; pTTv9, A43 2→250 uM, absence and presence of A1 (250 uM)",dose dependent regulation
same,dynamic range of control (max/un-induced),"M6″ riboswitch [5]; 105 nt spacer, IPTG (0.5 mM) plus A43 (250 uM)",134 fold
same,induction factor above IPTG expression,M6″ riboswitch [5]; sp120,up to 12 fold
same,affinity,[6],no affinity
"Nc1nc(N)c2nccnc2n1 [A44, 2,4-Diaminopteridine]",Kd,"M6″ riboswitch aptamer; ITC, FIG. 60, read-out: in vitro binding affinity",~2000 nM
Nc1ncnc2nc[nH]c12 [adenine],response of riboswitch to ligand,M6C″ riboswitch,neither responds
same,affinity,"M6″ riboswitch aptamer; ITC, M6″ aptamer domain",no affinity
same,response of riboswitch to ligand,M6″ riboswitch [1]; M6″,neither responds
same,affinity,M6C″ riboswitch aptamer,no affinity
"Nc1ncc2[nH]cnc2n1 [2AP, 2-aminopurine]",effect upon DsRed induction,M6 riboswitch [3]; simultaneous increase in 2AP,essentially no effect
same,"output, eGFP",[7]; 2AP in the presence of Am (250 μM),25.9×10^6 fu/OD620
same,"maximum induction factor, eGFP",[7]; highest concentrations of both inducers (Am and 2AP),24.1
same,"maximum output, eGFP",[7]; titration of 2AP alone,14.8×10^6 fu/OD620
same,"induction factor, eGFP",add A-riboswitch; increasing 2AP,11.3
same,maximum eGFP levels,add A-riboswitch; unaffected by Am,ca. 55×10^6 fu/OD620
same,binding interaction,M6,no binding interaction

# Reference: patent publication US20140213779A1, “RIBOSWITCHES” (THE UNIVERSITY OF MANCHESTER, priority 2011, published 2014)
